Experimental data as given in US6649379B1, “Method and deregulated enzyme for threonine production” (priority 1987, dated 2003).

T1: homoserine dehydrogenase enzyme of C. glutamicum (Corynebacterium glutamicum, UniProt P08499)
T1 sequence (P08499 1-445): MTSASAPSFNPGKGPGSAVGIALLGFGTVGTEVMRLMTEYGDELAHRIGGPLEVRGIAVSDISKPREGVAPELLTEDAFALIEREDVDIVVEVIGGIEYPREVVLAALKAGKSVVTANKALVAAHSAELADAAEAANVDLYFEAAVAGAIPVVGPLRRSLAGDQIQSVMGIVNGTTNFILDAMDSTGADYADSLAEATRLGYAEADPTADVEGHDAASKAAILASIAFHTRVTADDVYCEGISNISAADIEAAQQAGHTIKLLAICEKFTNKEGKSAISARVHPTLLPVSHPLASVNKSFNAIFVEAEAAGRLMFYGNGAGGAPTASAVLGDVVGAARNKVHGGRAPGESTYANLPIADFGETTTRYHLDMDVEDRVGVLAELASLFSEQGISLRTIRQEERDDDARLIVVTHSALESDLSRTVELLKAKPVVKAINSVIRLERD

T2: homoserine dehydrogenase (Corynebacterium glutamicum, UniProt P08499)
T2 construct: Crude cell lysates for homoserine dehydrogenase assays were prepared from 500 ml MMCG C. glutamicum AS019 and R102 cultures; endogenous in cells; host or cells: C. glutamicum AS019 and AS019E12/pMF33 (chromosomal wild-type hom); R102 (chromosomal hom^dr); AS019E12/pJD4 (plasmid-borne hom^dr beside chromosomal wild-type hom)
T2 sequence (P08499 whole entry, looked up): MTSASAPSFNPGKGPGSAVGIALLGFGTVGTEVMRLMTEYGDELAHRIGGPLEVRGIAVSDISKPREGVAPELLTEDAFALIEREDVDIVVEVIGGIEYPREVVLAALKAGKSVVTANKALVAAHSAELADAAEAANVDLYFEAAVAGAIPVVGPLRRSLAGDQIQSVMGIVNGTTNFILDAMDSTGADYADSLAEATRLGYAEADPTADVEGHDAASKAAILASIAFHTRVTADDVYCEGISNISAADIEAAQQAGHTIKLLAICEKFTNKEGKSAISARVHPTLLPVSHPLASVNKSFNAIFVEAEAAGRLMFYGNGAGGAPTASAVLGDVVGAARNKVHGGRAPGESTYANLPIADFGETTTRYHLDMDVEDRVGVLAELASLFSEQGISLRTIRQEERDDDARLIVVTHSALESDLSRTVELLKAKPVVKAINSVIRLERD


Legend:
[1] = target: T3, homoserine dehydrogenase (Corynebacterium glutamicum, UniProt P08499); assay: Homoserine dehydrogenase activity in crude cell extracts (initial decrease in absorbance at 340 nm by NADPH); assay type: biochemical, C. glutamicum
T3 construct: Crude cell lysates for homoserine dehydrogenase assays were prepared from 500 ml MMCG C. glutamicum AS019 and R102 cultures; endogenous in cells; host or cells: C. glutamicum AS019 and AS019E12/pMF33 (chromosomal wild-type hom); R102 (chromosomal hom^dr); AS019E12/pJD4 (plasmid-borne hom^dr beside chromosomal wild-type hom)
Method: Verified pJD4/AS019EI2 transformants were selected for the presence of the plasmid by growth on kanamycin supplemented mediums. The activity of the homoserine dehydrogenase from crude cell extracts of these cultures was determined in the presence and absence of L-threonine. A host cell encoding wild type homoserine dehydrogenase would be inactivated in the presence of 10 mM L-threonine. […] Therefore, homoserine dehydrogenase activity in the presence of L-threonine was derived from the cloned hom^dr gene. The specific activity of the deregulated homoserine dehydrogenase is approximately the same as that reported for the C. glutamicum chromosomal hom gene (0.0450 μM ml^−1min^1) The cloned hom^dr gene product was functional even in the presence of 120 mM L-threonine.
One ml of the supernatant from an overnight 10 ml MMCG culture of an alpha-hydroxy-valerate tolerant C. glutamicum isolate was filter sterilized and added 1:10 to a fresh 10 ml MMCG medium. […] Growth of AS155 was determined by densitometry after a 24 hour incubation at 30° C. […] The activity of homoserine dehydrogenase in crude cell extracts of C. glutamicum R102 and AS019 in the presence of both threonine and alpha-hydroxy-valerate was measured. […] Homoserine dehydrogenase activity was assayed by determining the initial decrease in the absorbance at 340 nm by NADPH as described by Follettie et al., Mol. Microbiol. […]

[2] = target: T1, homoserine dehydrogenase enzyme of C. glutamicum; details: threonine inhibition of C. glutamicum homoserine dehydrogenase; read-out: inhibition rate constant (Ki); cited from earlier work
[3] = target: T2, homoserine dehydrogenase; design: specific activity reported for the C. glutamicum chromosomal hom gene: unit not given here; details: reported value, cited from earlier work

| Molecule | effect of 10 mM L-threonine on wild type homoserine dehydrogenase [1] | Ki [2] | specific activity reported for the C. glutamicum chromosomal hom gene [3] | specific activity reported for wild type ([3]; wild type homoserine dehydrogenase) |
| --- | --- | --- | --- | --- |
| C[C@@H](O)[C@H](N)C(=O)O [L-threonine] | inactivate | 160 µM |  |  |
| wild type: wild type C. glutamicum homoserine dehydrogenase (SEQ ID NO:2) (protein) MTSASAPSFNPGKGPGSAVGIALLGFGTVGTEVMRLMTEYGDELAHRIGGPLEVRGIAVSDISKPREGVAPELLTEDAFALIEREDVDIVVEVIGGIEYPREVVLAALKAGKSVVTANKALVAAHSAELADAAEAANVDLYFEAAVAGAIPVVGPLRRSLAGDQIQSVMGIVNGTTNFILDAMDSTGADYADSLAEATRLGYAEADPTADVEGHDAASKAAILASIAFHTRVTADDVYCEGISNISAADIEAAQQAGHTIKLLAICEKFTNKEGKSAISARVHPTLLPVSHPLASVNKSFNAIFVEAEAAGRLMFYGNGAGGAPTASAVLGDVVGAARNKVHGGRAPGESTYANLPIADFGETTTRYHLDMDVEDRVGVLAELASLFSEQGISLRTIRQEERDDDARLIVVTHSALESDLSRTVELLKAKPVVKAINSVIRLERD |  |  | 0.0450 | 0.0450 μM ml^−1min^−1 |
